Laboratory results reported in publication PMC5672024, “Selective Glucocorticoid Receptor Properties of GSK866 Analogs with Cysteine Reactive Warheads” (Frontiers in Immunology, 2017).

Experiments:
[1] = test system: TNF-induced NFκB reporter gene activity in L929sA cells; experiment: p(NFκB)3-50luc reporter gene assay with TNF (NFκB transrepression); assay type: cell-based; settings: TNF 2,500 IU/ml; for NFκB transrepression in NFκB-luc reporter: dose range
Protocol: (§1) In order to compare transactivation and transrepression potencies of the different synthesized GSK866 analogs, we performed GRE- and NFκB-luciferase-dependent reporter gene studies in stable transfected cell lines, as previously described ([3], [8]). HaCat cells expressing p(GRE)2 50-Luc and L929sA cells expressing p(GRE)250-Luc or p(NFκB)350-Luc were cultured in DMEM medium with 1% L-glutamine, supplemented with 10% feral bovine serum (FBS), 100 µg/ml streptomycin, and 100 IU/mL penicillin in a humidified 5% CO2 atmosphere. Cells were passaged every 2 days at a dilution of 1:6. Reporter gene cells were plated at a density of 0.5 × 10^5 cells/well in 24 well plates and grown overnight. p(GRE)250-Luc-dependent reporter gene cells were treated with solvent (DMSO) or compound (100 fM, 1 nM, 10 nM, 100 nM, and 1 µM) for 6 h, whereas in case of p(NFκB)350-Luc, TNF (2,500 IU/mL) was added 2 h following compound treatment. After incubation with the compounds, medium was removed and cells were washed twice with PBS followed by adding 100 µl of 1× lysis buffer (0.2 M K2HPO4, 0.2 M KH2PO4, Triton X-100, pH 7.6). 25 µl of lysate was assayed for luciferase activity by adding 50 µl of luciferase assay substrate (1 mM luciferin or luciferin salt, 3 mM ATP, and 15 mM MgSO4 in 30 mM HEPES buffer, pH 7.8) followed by 10 s mixing and measuring 1 s bioluminescence using an Envision multilabel reader (Perkin Elmer).
(§2) Figure 3 Selective glucocorticoid receptor agonist GSK866 analogs UAMC-1217, UAMC-1218 but not UAMC-1158 and UAMC-1159 elicit selective glucocorticoid receptor-transactivation and NFκB-transrepression properties. Glucocorticoid response element (GRE)- and NFκB-luciferase-dependent reporter gene assays were performed in L929sA and HaCat reporter cells which were stably transfected with, respectively, p(NFκB)3-50luc or p(GRE)2-50-luc constructs. For p(GRE)2-50-luc reporter assays, cells were solvent-treated or induced with different concentrations of Dex (A), Dex-mesylate (Dex-Mes) (A), SEGRA GSK866 (C) or analogs UAMC-1158 (D), UAMC-1159 (E), UAMC-1217 (F), and UAMC-1218 (G) as indicated for a total exposure time of 6 h, whereas cells were cotreated for TNF (2,500 IU/ml) in the last 4 h for p(NFkB)3-50luc reporter assays (B–G). Corresponding lysates were assayed for luciferase activities and normalized for protein content as described in the Section “Materials and Methods.” Promoter activities are expressed as relative induction factor (± standard deviation) i.e., the ratio of expression levels recorded either at induced and non-induced conditions, with the latter taken to be 1.

[2] = test system: GR transactivation, p(GRE)2-50-luc reporter in HaCat cells; experiment: p(GRE)2-50-luc reporter gene assay (GR transactivation); assay type: cell-based; settings: 6 h; for GR transactivation in GRE-luc reporter: concentration range 10^−6–10^−10 M
Protocol: as §1, §2

GR [3] = test system: GR; parameters: method as in PMID 27612544; settings: ref [14], cited from earlier work; for % inhibition of GR ligand binding: 1.5 nM [3H]-dexamethasone, 1 µM ligand; for displacement of radiolabeled Dex: cell-based ligand-binding competition assay; for IC50 / Ki: displacement of radiolabeled Dex; for IC50: read-out: IC50 (GR radioligand binding); for Ki: read-out: Ki (GR radioligand binding)
[4] = test system: GR nuclear translocation in A549 cells; experiment: Immunofluorescence of nuclear GR translocation in A549 cells; assay type: cell-based, human; settings: serum starved A549 cells, 1 µM, 30 min
Protocol: To detect endogenous GR in A549 cells, cells were grown in serum free media for 24 h followed by treatment with 1 µM of specific GR ligands. After 30 min of treatment, cells on the cover glass were fixed in 4% formaldehyde in phosphate-buffered saline (PBS), permeabilized with 0.3% Triton X-100–PBS, and then blocked in 5% milk, 10% FCS, 0.3% bovine serum albumin, and 0.3% Triton X-100 in PBS for 30 min at room temperature. Primary antibodies against anti GR-antibody (SantaCruz Biotechnology) were used at a dilution of 1:200. Nuclei were stained by DAPI and samples were analyzed using a confocal Leica LSM410 microscope. To quantify nuclear translocation of GR in a standardized manner, multichannel fluorescence images were analyzed using a script for FIJI image analysis freeware (http://fiji.sc) that is essentially based on a pipeline described before (CellBlocks.ijm) ([39]), and is available upon request. In brief, the analysis first segments nuclei in the Hoechst/DAPI channel and then uses the nuclear mask to define perinuclear cytoplasmic regions of interest (ROIs). Nuclei are detected after local contrast enhancement and Gaussian smoothing to, respectively, cover for spatial illumination heterogeneity and noise. After automatic thresholding (Isodata algorithm), touching nuclei are separated using a conditional watershed algorithm ([40]). Next, cytoplasmic ROIs are determined as concentric bands around the nuclei by Voronoi-restrained region growing ([41]). Finally, the average intensity of the GR channel is measured in both the nuclear and cytoplasmic ROIs and the nuclear-to cytoplasm signal intensity ratio (N/C Ratio) is calculated per cell (Figure S1 in Supplementary Material) ([42]).
Figure 6 Selective glucocorticoid receptor agonist GSK866 analogs UAMC-1217, UAMC-1218, but not UAMC-1158 and UAMC-1159 trigger nuclear glucocorticoid receptor (GR) translocation. (A) Serum starved A549 cells were left solvent treated or treated for 30 min with 1 µM Dex, Dex-mesylate (Dex-Mes), GSK866, UAMC-1158, UAMC-1159, UAMC-1217, or UAMC-1218. GR translocation was evaluated by immunofluorescence whereas nuclei were stained by DAPI dye. Magnification is at 100×. White scalebars represent […]. (B) Automated image quantification of GR translocation of three replicate immunofluorescence images of the different experimental setups.

[5] = test system: GR Ser211 phosphorylation; experiment: Western blot of GR Ser211 phosphorylation; assay type: cell-based; settings: 1 µM, 6 h (UAMC-1158: Figure S2, 4 or 24 h)
Protocol: Whole cell extracts contain multiple protease inhibitors (Complete Mini®, Roche) and Halt phosphatase inhibitor cocktail (Thermoscientific). Soluble protein extracts were obtained after three times freeze and thaw cycles and centrifugation at […] for 15 min at 4°C. Samples were separated by sodium dodecyl sulfate-polyacrylamidegel electrophoresis (SDS-PAGE) and transferred onto nitrocellulose membranes (Hybond C, Amersham) following standard protocols. After blocking, membranes were incubated overnight at 4°C with the primary antibodies: anti-GR (sc-8992, SantaCruz Biotechnology), anti-phospho-GR Ser211 (4161, Cell Signalling) and anti-Actin (A3853, Sigma-Aldrich) followed by dye-conjugated secondary antibodies (LI-COR® Biosciences). Bound complexes were detected with the Odyssey® infrared imaging system (LI-COR®) and quantified by Image J software.
Figure 5 Selective glucocorticoid receptor agonist GSK866 and its analogs UAMC-1217, UAMC-1218 trigger glucocorticoid receptor (GR) Ser211 phosphorylation. (A) Western detection of expression levels of Actin, GR, and GR Ser S211 phosphorylation in HaCat cells following 6 h treatment with 1 µM Dex, UAMC-1217, UAMC-1218, or GSK866. (B) Bar plot representation of Western blot intensities of Actin, GR, and GR Ser S211 phosphorylation observed in panel A, as quantified by Image J. (C) Western detection of expression levels of Actin, GR expression, and Ser S211 phosphorylation in HaCat cells following 6 h treatment with, respectively, 10, 100, or 1,000 nM Dex or UAMC-1217. (D) Bar plot representation of Western blot intensities of Actin, GR, and GR Ser S211 phosphorylation observed in panel (C), as quantified by free Image J software.

recombinant GR-LBD (hGR) = experiment: Mass spectrometry of tryptic peptides of recombinant GR-LBD after ligand incubation (covalent binding); parameters: species or system human; settings: 2 h at 37°C, trypsin digestion, LC-MS/MS
Protocol: Recombinant His6-MBP-mCaspase3 site-LBD-hGR was expressed in the Escherichia coli strain BL21codon + pICA2 that was transformed with the corresponding pLHM36LBD-hGR plasmid and in which expression was induced by Isopropyl β-D-1-thiogalactopyranoside (IPTG) under control of a pL-promotor. The transformed bacteria were grown in Luria Bertani medium supplemented with ampicillin (100 µg/ml) and kanamycin (50 µg/ml) overnight at 28°C before 1/100 inoculation in 12 × 0.5 l provided with Luria Bertani medium supplemented with ampicillin (100 µg/ml) and 1% glycerol in a shaker incubator. The cells were grown to an optical density at AU 600 nm of 0.65, transferred to 20°C and expression was induced by addition of 1 mM IPTG overnight. Cells were then harvested and frozen at −20°C. […] After thawing, the cells were re-suspended at 3 ml/g in cold 20 mM Tris-HCl pH 7.4, 200 mM NaCl, 1 mM EDTA, 1 tablet complete protease inhibitor cocktail from Roche/50 ml, and 10 mM β-mercaptoethanol. The cytoplasmic fraction was prepared by sonication of the cells on ice and isolated by centrifugation at 18,000 × g for 30 min. All further purification steps were conducted at 4°C. The clear supernatant was applied to an amylase column (BioLabs, XK26 × 20, 100 ml), equilibrated with 20 mM Tris–HCl pH 7.4, 200 mM NaCl, 1 mM EDTA, and 10 mM β-mercaptoethanol. The column was eluted with 20 mM Tris–HCl pH 7.4, 200 mM NaCl, 1 mM EDTA, 10 mM maltose, and 10 mM β-mercaptoethanol. […] Recombinant purified His-MBP-DEVD-GR-LBD fusion protein was dissolved at a concentration of 1 mg in 1.7 ml PBS buffer.
Each aliquot was incubated 2 h at 37°C. […] 120 µl of each sample was loaded onto a spin column and the flow-through was collected (1,500 × g, 2 min). Trypsin (5 µl of 20 mM stock solution) was added, and the samples were incubated 20 h at 37°C. Then, 0.1% FA (formic acid) (41.5 µl) and 20 mM TCEP in 0.1% FA (18.5 µl, 5.7 mg TCEP/ml) were added [final volume = 185 µl, final concentration TCEP = 2 mM, 1 µg material/2.5 μl], and the samples were subjected to LC–MS/MS analysis.
The obtained peptide mixtures were introduced onto an LC–MS/MS system; the Ultimate 3000 RSLC nano (Dionex, Amsterdam, The Netherlands) in-line connected to an LTQ-Orbitrap Velos (Thermo Fisher Scientific, Bremen, Germany). The sample mixture was loaded on a trapping column [made in-house, 100 µm internal diameter (I.D.) × 20 mm, 5 µm C18 beads (Reprosil-HD, Dr. Maisch)]. After back flushing from the trapping column, the sample was loaded on a reverse-phase column [made in-house, 75 µm I.D. × 150 mm, 5 µm C18 beads (Reprosil-HD, Dr. Maisch)].
The mass spectrometer was operated in data-dependent mode, automatically switching between MS and MS/MS acquisition for the 10 most abundant peaks in a given MS spectrum. […]

GR [6] = experiment: Cell-based GR ligand-binding competition assay with [3H]-dexamethasone; settings: from IC50 values of ligand displacement assays; ref [14]

Modifications: GR-LBD cysteine-containing peptide covalently bound (recombinant GR-LBD (hGR)) | Modifications: GR-LBD cysteine-containing peptide covalently bound (recombinant GR-LBD (hGR); listed as 1218) | Structure (SMILES) | NFκB transrepression in NFκB-luc reporter [1] | GR transactivation in GRE-luc reporter [2] | % inhibition of GR ligand binding (GR [3]) [%] | displacement of radiolabeled Dex (GR [3]) | nuclear GR translocation [4] | GR Ser211 phosphorylation [5] | GR transactivation in GRE-luc reporter at 10 nM [2] | IC50 (GR [3]) [nM] | Ki (GR [3]) [nM] | inhibition of TNF-induced NFκB reporter gene activity ([1]; 10 nM compound) | fold lower GR-LBD affinity versus GSK866 (GR [6]) | inhibition at 0.01 µM ([1]; L929sA, 10 nM compound) [%]
 |  | CCN(CC(O)(CNC(=O)c1cnn(-c2ccc(F)cc2)c1N)C(F)(F)F)C(=O)C1CCCN1C(=O)CCl (stereo not drawn) [UAMC-1159] | completely ineffective | completely fail to elicit any GR transactivation at any dose tested | −12 | failed to show displacement of radiolabeled Dex | completely ineffective |  |  |  |  |  |  | 
 |  | CCN(C[C@@](O)(CNC(=O)c1cnn(-c2ccc(F)cc2)c1N)C(F)(F)F)C(=O)c1c(Cl)cccc1Cl [GSK866] | dose-dependent NFκB-transrepression effects | strong GR agonistic activities | 100 |  | induce (partial) translocation of GR from the cytosol to the nucleus | enhance the Ser211 phosphorylation | significant GR transactivation | 4.6 | 2.3 |  |  | 
 |  | C[C@@H]1C[C@H]2[C@@H]3CCC4=CC(=O)C=C[C@]4(C)[C@@]3(F)[C@@H](O)C[C@]2(C)[C@@]1(O)C(=O)COS(C)(=O)=O [Dex-Mes, dexamethasone-21-mesylate, reference compound] |  | weaker dose-dependent GR-dependent transactivation than Dex | 99 |  | induce (partial) translocation of GR from the cytosol to the nucleus |  |  | 7.3 | 3.7 | 40–45% |  | 
Cys-622 | Peptide 615–633 → C622 | C=CC(=O)Nc1ccc(Cl)c(C(=O)N(CC)C[C@@](O)(CNC(=O)c2cnn(-c3ccc(F)cc3)c2N)C(F)(F)F)c1Cl [UAMC-1218] | dose-dependent NFκB-transrepression effects |  | 96 |  | induce (partial) translocation of GR from the cytosol to the nucleus | enhance the Ser211 phosphorylation | significantly reduced GR transactivation to levels below transactivation observed with 10 nM of Dex | 34 | 17 |  | approx. 5 fold | ~95
 |  | CCN(C[C@@](O)(CNC(=O)c1cnn(-c2ccc(F)cc2)c1N)C(F)(F)F)C(=O)CCN1C(=O)C=CC1=O [UAMC-1158] | completely ineffective | completely fail to elicit any GR transactivation at any dose tested | −2 | failed to show displacement of radiolabeled Dex | completely ineffective | failed to show any change in GR phosphorylation status |  |  |  |  |  | 
